Columns and labels:
[1] = test system: FLT3(ITD,D835V)
[2] = test system: PARP; settings: 786-O cells; 2.5-15 μM; 48 h
[3] = test system: STAT3 (S727); settings: 786-O cells; 48 h
[4] = test system: primary hepatocytes; experiment: cells; settings: Hepatocyte, read-out: IC50 cell viability
[5] = molecular target: ABL1(H396P)-nonphosphorylated (Homo sapiens, UniProt P00519, H396P); experiment: biochemical; settings: read-out: %Ctrl @ 2000nM
[6] = molecular target: ABL1(H396P)-phosphorylated (Homo sapiens, UniProt P00519, H396P); experiment: biochemical; settings: read-out: %Ctrl @ 2000nM
[7] = molecular target: ALK(C1156Y) (Homo sapiens, UniProt Q9UM73, C1156Y); experiment: biochemical; settings: read-out: %Ctrl @ 2000nM
[8] = molecular target: CAMK1B (Homo sapiens, UniProt Q6P2M8); experiment: biochemical; settings: read-out: %Ctrl @ 2000nM
[9] = molecular target: CASK (Homo sapiens, UniProt O14936); experiment: biochemical; settings: read-out: %Ctrl @ 2000nM
[10] = molecular target: CDK4-cyclinD1 (Homo sapiens, UniProt P11802); experiment: biochemical; settings: read-out: %Ctrl @ 2000nM
[11] = molecular target: CDKL1 (Homo sapiens, UniProt Q00532); experiment: biochemical; settings: read-out: %Ctrl @ 2000nM
[12] = molecular target: CIT (Homo sapiens, UniProt O14578); experiment: biochemical; settings: read-out: %Ctrl @ 2000nM
[13] = molecular target: CSF1R-autoinhibited (Homo sapiens, UniProt P07333); experiment: biochemical; settings: read-out: %Ctrl @ 2000nM
[14] = molecular target: EGFR(L858R) (Homo sapiens, UniProt P00533, L858R); experiment: biochemical; settings: read-out: %Ctrl @ 2000nM
[15] = molecular target: EGFR(T790M) (Homo sapiens, UniProt P00533, T790M); experiment: biochemical; settings: read-out: %Ctrl @ 2000nM
Chain of EGFR(T790M) (P00533 25-1210 T790M): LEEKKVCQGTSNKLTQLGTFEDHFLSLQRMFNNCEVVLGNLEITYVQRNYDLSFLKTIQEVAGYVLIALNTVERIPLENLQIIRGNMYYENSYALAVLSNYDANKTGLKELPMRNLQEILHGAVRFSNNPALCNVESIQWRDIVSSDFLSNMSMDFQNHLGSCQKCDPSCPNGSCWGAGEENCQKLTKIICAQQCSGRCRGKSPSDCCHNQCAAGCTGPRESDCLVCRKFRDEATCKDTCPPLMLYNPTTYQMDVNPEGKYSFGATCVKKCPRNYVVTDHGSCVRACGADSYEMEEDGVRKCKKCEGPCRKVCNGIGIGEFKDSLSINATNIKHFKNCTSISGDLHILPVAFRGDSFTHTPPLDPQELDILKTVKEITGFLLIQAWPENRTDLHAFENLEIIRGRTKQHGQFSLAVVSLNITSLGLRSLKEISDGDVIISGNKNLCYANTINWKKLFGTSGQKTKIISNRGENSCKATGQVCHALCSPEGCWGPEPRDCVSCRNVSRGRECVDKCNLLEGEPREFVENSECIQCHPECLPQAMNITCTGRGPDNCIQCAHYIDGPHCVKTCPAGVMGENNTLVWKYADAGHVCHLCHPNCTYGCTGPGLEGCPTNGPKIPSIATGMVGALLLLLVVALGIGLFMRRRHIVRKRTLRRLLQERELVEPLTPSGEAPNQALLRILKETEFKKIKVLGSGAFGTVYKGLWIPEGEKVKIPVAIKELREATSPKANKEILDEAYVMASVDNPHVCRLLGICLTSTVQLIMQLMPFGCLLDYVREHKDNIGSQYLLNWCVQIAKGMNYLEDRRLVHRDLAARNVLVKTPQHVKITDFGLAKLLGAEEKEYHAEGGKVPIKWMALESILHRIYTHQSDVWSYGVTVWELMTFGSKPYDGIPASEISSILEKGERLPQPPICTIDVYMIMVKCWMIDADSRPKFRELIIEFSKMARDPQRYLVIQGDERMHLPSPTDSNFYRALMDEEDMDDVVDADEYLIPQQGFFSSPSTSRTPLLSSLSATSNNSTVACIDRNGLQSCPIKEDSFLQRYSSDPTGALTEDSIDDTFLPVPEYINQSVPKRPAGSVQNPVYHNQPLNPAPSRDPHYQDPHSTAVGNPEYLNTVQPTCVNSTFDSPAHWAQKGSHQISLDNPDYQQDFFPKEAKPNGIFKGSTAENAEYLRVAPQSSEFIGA

[16] = molecular target: EPHA6 (Homo sapiens, UniProt Q9UF33); experiment: biochemical; settings: read-out: %Ctrl @ 2000nM
[17] = molecular target: FLT3(N841I) (Homo sapiens, UniProt P36888, N841I); experiment: biochemical; settings: read-out: %Ctrl @ 2000nM
[18] = molecular target: GAK (Homo sapiens, UniProt O14976); experiment: biochemical; settings: read-out: %Ctrl @ 2000nM
Chain of GAK (O14976 whole entry): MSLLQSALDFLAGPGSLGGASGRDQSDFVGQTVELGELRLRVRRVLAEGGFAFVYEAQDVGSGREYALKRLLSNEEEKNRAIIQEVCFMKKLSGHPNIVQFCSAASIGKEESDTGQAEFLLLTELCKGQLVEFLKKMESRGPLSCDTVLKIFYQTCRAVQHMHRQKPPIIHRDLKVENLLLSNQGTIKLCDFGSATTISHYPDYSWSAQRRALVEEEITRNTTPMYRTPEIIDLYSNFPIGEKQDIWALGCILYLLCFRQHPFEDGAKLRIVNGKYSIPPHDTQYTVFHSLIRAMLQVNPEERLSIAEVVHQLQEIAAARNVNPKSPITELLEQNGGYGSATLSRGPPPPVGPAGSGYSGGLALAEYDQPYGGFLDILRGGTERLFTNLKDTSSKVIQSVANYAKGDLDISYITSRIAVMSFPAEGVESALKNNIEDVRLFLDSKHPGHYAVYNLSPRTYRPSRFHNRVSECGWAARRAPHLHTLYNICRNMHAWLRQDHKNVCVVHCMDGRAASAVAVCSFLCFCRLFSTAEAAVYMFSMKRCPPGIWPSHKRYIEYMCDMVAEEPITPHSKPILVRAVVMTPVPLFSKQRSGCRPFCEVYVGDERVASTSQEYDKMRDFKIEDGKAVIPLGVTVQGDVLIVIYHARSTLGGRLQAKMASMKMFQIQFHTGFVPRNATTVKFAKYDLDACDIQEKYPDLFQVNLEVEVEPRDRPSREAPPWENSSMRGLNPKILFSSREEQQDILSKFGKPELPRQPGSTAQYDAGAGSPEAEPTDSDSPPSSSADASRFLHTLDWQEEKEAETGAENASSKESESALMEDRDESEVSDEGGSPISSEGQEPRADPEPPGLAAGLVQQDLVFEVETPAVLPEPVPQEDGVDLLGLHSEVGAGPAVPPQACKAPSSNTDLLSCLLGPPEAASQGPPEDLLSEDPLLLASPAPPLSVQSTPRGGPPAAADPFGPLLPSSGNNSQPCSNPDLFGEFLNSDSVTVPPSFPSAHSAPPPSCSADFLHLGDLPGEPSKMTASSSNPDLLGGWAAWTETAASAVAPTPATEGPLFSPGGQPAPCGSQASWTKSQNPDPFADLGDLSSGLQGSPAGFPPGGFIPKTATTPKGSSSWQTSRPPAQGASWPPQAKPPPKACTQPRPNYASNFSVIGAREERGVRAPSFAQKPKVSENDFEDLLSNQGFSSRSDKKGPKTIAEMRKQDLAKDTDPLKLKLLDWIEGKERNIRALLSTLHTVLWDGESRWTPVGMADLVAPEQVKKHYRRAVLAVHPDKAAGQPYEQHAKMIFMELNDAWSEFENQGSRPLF

[19] = molecular target: GSK3B (Homo sapiens, UniProt P49841); experiment: biochemical; settings: read-out: %Ctrl @ 2000nM
[20] = molecular target: HASPIN (Homo sapiens, UniProt Q8TF76); experiment: biochemical; settings: read-out: %Ctrl @ 2000nM
Chain of HASPIN (Q8TF76 whole entry): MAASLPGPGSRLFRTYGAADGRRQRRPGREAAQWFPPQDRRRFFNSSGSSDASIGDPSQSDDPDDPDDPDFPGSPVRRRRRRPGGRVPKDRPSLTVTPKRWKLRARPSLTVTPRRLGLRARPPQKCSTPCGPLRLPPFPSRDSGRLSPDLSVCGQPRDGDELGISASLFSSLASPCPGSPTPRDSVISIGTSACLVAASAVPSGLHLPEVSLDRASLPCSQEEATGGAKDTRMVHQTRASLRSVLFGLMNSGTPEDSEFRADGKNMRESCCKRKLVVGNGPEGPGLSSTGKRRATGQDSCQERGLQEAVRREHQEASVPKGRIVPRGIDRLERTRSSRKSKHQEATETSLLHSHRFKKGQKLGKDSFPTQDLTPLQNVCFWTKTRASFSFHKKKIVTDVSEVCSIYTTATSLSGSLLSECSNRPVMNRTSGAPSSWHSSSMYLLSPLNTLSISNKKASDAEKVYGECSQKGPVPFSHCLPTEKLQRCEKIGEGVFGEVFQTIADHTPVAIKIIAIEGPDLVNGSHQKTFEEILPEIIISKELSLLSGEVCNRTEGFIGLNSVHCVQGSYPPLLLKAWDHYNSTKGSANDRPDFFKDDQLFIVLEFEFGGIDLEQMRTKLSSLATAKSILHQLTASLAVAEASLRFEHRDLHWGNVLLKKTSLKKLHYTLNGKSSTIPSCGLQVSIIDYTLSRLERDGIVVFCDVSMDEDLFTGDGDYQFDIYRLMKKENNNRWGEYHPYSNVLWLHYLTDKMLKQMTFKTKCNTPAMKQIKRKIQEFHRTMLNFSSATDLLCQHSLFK

[21] = molecular target: INSRR (Homo sapiens, UniProt P14616); experiment: biochemical; settings: read-out: %Ctrl @ 2000nM
[22] = molecular target: IRAK1 (Homo sapiens, UniProt P51617); experiment: biochemical; settings: read-out: %Ctrl @ 2000nM
[23] = molecular target: JNK3 (Homo sapiens, UniProt P53779); experiment: biochemical; settings: read-out: %Ctrl @ 2000nM
[24] = molecular target: KIT(V559D,T670I) (Homo sapiens, UniProt P10721, T670I/V559D); experiment: biochemical; settings: read-out: %Ctrl @ 2000nM
[25] = molecular target: MAP4K4 (Homo sapiens, UniProt O95819); experiment: biochemical; settings: read-out: %Ctrl @ 2000nM
[26] = molecular target: MRCKB (Homo sapiens, UniProt Q9Y5S2); experiment: biochemical; settings: read-out: %Ctrl @ 2000nM
[27] = molecular target: NDR1 (Homo sapiens, UniProt Q15208); experiment: biochemical; settings: read-out: %Ctrl @ 2000nM
[28] = molecular target: NEK2 (Homo sapiens, UniProt P51955); experiment: biochemical; settings: read-out: %Ctrl @ 2000nM
[29] = molecular target: NEK9 (Homo sapiens, UniProt Q8TD19); experiment: biochemical; settings: read-out: %Ctrl @ 2000nM
[30] = molecular target: OSR1 (Homo sapiens, UniProt O95747); experiment: biochemical; settings: read-out: %Ctrl @ 2000nM
Chain of OSR1 (O95747 whole entry): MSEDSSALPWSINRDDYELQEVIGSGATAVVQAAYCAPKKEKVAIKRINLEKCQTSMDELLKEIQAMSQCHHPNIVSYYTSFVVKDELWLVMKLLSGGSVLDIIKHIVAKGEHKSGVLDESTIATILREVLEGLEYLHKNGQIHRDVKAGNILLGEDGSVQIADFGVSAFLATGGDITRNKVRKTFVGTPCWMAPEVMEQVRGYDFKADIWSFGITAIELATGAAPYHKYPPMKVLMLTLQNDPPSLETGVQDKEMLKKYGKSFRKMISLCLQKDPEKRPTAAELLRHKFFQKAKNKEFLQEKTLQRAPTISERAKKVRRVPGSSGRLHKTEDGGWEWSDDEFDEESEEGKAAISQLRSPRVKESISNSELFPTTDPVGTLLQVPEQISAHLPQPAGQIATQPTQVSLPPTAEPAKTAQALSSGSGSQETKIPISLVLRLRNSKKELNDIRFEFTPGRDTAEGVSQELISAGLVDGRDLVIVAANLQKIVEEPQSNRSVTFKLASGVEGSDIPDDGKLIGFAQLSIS

[31] = molecular target: PCTK2 (Homo sapiens, UniProt Q00537); experiment: biochemical; settings: read-out: %Ctrl @ 2000nM
[32] = molecular target: PKN1 (Homo sapiens, UniProt Q16512); experiment: biochemical; settings: read-out: %Ctrl @ 2000nM
[33] = molecular target: PLK4 (Homo sapiens, UniProt O00444); experiment: biochemical; settings: read-out: %Ctrl @ 2000nM
[34] = molecular target: PRKD1 (Homo sapiens, UniProt Q15139); experiment: biochemical; settings: read-out: %Ctrl @ 2000nM
[35] = molecular target: PRKG2 (Homo sapiens, UniProt Q13237); experiment: biochemical; settings: read-out: %Ctrl @ 2000nM
[36] = molecular target: RIOK1 (Homo sapiens, UniProt Q9BRS2); experiment: biochemical; settings: read-out: %Ctrl @ 2000nM
[37] = molecular target: SGK3 (Homo sapiens, UniProt Q96BR1); experiment: biochemical; settings: read-out: %Ctrl @ 2000nM
[38] = molecular target: SYK (Homo sapiens, UniProt P43405); experiment: biochemical; settings: read-out: %Ctrl @ 2000nM
[39] = molecular target: ULK2 (Homo sapiens, UniProt Q8IYT8); experiment: biochemical; settings: read-out: %Ctrl @ 2000nM
Chain of ULK2 (Q8IYT8 whole entry): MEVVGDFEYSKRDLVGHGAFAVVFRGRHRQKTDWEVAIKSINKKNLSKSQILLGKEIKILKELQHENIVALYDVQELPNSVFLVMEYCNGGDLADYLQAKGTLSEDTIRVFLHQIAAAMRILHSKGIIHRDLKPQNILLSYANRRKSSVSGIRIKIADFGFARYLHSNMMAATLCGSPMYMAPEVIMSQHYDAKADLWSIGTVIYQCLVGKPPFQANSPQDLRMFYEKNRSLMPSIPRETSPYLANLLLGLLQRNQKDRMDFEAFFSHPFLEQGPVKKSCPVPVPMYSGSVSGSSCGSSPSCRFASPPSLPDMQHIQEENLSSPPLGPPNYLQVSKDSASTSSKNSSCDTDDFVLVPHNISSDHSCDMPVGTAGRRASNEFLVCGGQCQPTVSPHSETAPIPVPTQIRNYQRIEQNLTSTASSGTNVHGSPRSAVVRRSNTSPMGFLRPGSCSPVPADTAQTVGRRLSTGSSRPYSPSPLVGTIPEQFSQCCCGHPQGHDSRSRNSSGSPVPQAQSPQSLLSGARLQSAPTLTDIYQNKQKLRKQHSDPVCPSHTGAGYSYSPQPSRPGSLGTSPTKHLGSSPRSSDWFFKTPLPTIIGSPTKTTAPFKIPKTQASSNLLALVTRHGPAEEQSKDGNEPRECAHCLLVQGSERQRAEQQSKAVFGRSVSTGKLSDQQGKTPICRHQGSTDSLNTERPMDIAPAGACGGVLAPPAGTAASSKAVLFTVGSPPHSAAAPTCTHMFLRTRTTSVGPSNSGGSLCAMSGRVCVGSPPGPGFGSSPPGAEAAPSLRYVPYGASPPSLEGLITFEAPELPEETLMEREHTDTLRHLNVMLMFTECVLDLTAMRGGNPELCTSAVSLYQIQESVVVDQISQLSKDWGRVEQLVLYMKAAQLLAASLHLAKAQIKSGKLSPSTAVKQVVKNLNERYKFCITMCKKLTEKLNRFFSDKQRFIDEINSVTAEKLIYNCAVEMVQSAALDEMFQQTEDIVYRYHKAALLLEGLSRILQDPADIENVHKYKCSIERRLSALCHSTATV

[40] = molecular target: WNK4 (Homo sapiens, UniProt Q96J92); experiment: biochemical; settings: read-out: %Ctrl @ 2000nM
[41] = molecular target: YANK1 (Homo sapiens, UniProt Q8WU08); experiment: biochemical; settings: read-out: %Ctrl @ 2000nM
[42] = molecular target: YSK4 (Homo sapiens, UniProt Q56UN5); experiment: biochemical; settings: read-out: %Ctrl @ 2000nM
[43] = molecular target: ZAP70 (Homo sapiens, UniProt P43403); experiment: biochemical; settings: read-out: %Ctrl @ 2000nM

For `CC(C)COC(=O)c1[nH]c2ccc(F)cc2c1-c1cn(CC2CCN(CCNS(=O)(=O)c3ccc(CC(C)C)cc3)CC2)nn1` [AB668, isobutyl 5-fluoro-3-(1-((1-(2-((4-isobutylphenyl)sulfonamido)ethyl)piperidin-4-yl)methyl)-1H-1,2,3-triazol-4-yl)-1H-indole-2-carboxylate], the “%Ctrl @ 2000nM” value [1] was 77%, the “cleavage of PARP” value [2] was “cleavage of PARP” and the “activated forms of STAT3” value [3] was “dose-dependent inhibition”. For the same molecule, the IC50 [4] was greater than 100 µM, the remaining activity at 2 µM [5] was 97% and the remaining activity at 2 µM [6] was 80%. For the same molecule, the remaining activity at 2 µM [7] was 81%, the remaining activity at 2 µM [8] was 100% and the remaining activity at 2 µM [9] was 97%. For the same molecule, the remaining activity at 2 µM [10] was 84%, the remaining activity at 2 µM [11] was 86% and the remaining activity at 2 µM [12] was 88%. The remaining activity at 2 µM [13] was 85%, the remaining activity at 2 µM [14] was 96% and the remaining activity at 2 µM [15] was 89%. It also gave a remaining activity at 2 µM [16] of 83%, a remaining activity at 2 µM [17] of 95% and a remaining activity at 2 µM [18] of 99%. The remaining activity at 2 µM [19] was 100%, the remaining activity at 2 µM [20] was 100% and the remaining activity at 2 µM [21] was 93%. It also gave a remaining activity at 2 µM [22] of 98%, a remaining activity at 2 µM [23] of 92% and a remaining activity at 2 µM [24] of 93%. For the same molecule, the remaining activity at 2 µM [25] was 96%, the remaining activity at 2 µM [26] was 90% and the remaining activity at 2 µM [27] was 93%. It also gave a remaining activity at 2 µM [28] of 90%, a remaining activity at 2 µM [29] of 94% and a remaining activity at 2 µM [30] of 81%. The remaining activity at 2 µM [31] was 96%, the remaining activity at 2 µM [32] was 91% and the remaining activity at 2 µM [33] was 94%. The remaining activity at 2 µM [34] was 100%, the remaining activity at 2 µM [35] was 97% and the remaining activity at 2 µM [36] was 80%. For the same molecule, the remaining activity at 2 µM [37] was 99%, the remaining activity at 2 µM [38] was 100% and the remaining activity at 2 µM [39] was 100%. For the same molecule, the remaining activity at 2 µM [40] was 96%, the remaining activity at 2 µM [41] was 78% and the remaining activity at 2 µM [42] was 100%. The remaining activity at 2 µM [43] was 76%.

— paper PMC10838953
